From ChEMBL document CHEMBL3608278 (J Med Chem, 2015)
pIC50: −log10 of the molar value. Bridge positions count the residues as written; N and C are the ends. Square brackets hold non-standard residues; d marks the D form. Peptide text beside a SMILES is read from it. 1Nal = N[C@@H](Cc1cccc2ccccc12)C(=O)O

Columns and labels:
[1] = target: T1, Potassium voltage-gated channel subfamily A member 3 (Homo sapiens, UniProt P22001); assay type: cell-based, CHO-K1
[2] = target: T1, Potassium voltage-gated channel subfamily A member 3; test: cell-based; set-up: species or system Blood
[3] = target: T1, Potassium voltage-gated channel subfamily A member 3; set-up: species or system Blood

T1 sequence (P22001 whole entry): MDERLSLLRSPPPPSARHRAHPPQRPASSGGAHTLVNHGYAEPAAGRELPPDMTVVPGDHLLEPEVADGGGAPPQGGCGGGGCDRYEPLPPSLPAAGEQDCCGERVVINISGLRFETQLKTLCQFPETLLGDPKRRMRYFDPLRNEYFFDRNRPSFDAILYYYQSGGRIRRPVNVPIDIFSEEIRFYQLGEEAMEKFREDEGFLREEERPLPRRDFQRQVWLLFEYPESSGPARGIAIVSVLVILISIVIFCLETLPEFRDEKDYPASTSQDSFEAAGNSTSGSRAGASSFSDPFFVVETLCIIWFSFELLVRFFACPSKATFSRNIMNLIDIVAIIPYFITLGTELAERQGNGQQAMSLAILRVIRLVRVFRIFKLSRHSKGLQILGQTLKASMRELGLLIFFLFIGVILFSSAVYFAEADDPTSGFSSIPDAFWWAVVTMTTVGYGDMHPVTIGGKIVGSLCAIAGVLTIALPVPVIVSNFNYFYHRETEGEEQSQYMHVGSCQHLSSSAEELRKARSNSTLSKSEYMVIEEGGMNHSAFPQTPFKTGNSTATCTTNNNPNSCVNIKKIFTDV

Row | Structure (SMILES) | pIC50 [1] | pIC50 [2] | pIC50 [3] | pIC50 ([1]; cho-k1)
1 | CC[C@H](C)[C@@H]1NC(=O)[C@@H](NC(=O)[C@H](CO)NC(=O)[C@@H](N)CCCNC(=N)N)CSSC[C@@H](C(=O)O)NC(=O)[C@H](CCCCN)NC(=O)CNC(=O)[C@@H]2CSSC[C@@H]3NC(=O)[C@H](CCC(N)=O)NC(=O)[C@H](Cc4ccccc4)NC(=O)[C@H](C)NC(=O)[C@H]([C@@H](C)O)NC(=O)[C@H](CSSC[C@H](NC(=O)[C@H](Cc4ccccc4)NC(=O)[C@H](CO)NC(=O)[C@H](CC(C)C)NC(=O)[C@H](CCCNC(=N)N)NC(=O)[C@H](Cc4ccc(O)cc4)NC(=O)[C@H](CCCCN)NC(=O)[C@H](CCSC)NC(=O)[C@H](CO)NC(=O)[C@H](Cc4cnc[nH]4)NC(=O)[C@H](CCCCN)NC3=O)C(=O)N[C@@H](CCCNC(=N)N)C(=O)N[C@@H](CCCCN)C(=O)N[C@@H]([C@@H](C)O)C(=O)N2)NC(=O)[C@H](CCCNC(=N)N)NC(=O)[C@H](CO)NC(=O)[C@H](CCCCN)NC(=O)[C@@H]2CCCN2C(=O)[C@H]([C@@H](C)CC)NC(=O)[C@H]([C@@H](C)O)NC(=O)[C@H](CC(=O)O)NC1=O | 9.82 | 10.17 | 9.87 | 
2 | CC[C@H](C)[C@@H]1NC(=O)[C@@H](NC(=O)[C@H](CO)NC(=O)[C@@H](N)CCCNC(=N)N)CSSC[C@@H](C(=O)O)NC(=O)[C@H]([C@@H](C)O)NC(=O)CNC(=O)[C@@H]2CSSC[C@@H]3NC(=O)[C@H](CCCCN)NC(=O)[C@H](Cc4ccccc4)NC(=O)[C@H](C)NC(=O)[C@H]([C@@H](C)O)NC(=O)[C@H](CSSC[C@H](NC(=O)[C@H](Cc4ccccc4)NC(=O)[C@H](CO)NC(=O)[C@H](CC(C)C)NC(=O)[C@H](CCCNC(=N)N)NC(=O)[C@H](Cc4ccc(O)cc4)NC(=O)[C@H](CCCCN)NC(=O)[C@H](CCCCN)NC(=O)[C@H](CO)NC(=O)[C@H](Cc4cnc[nH]4)NC(=O)[C@H](CCCCN)NC3=O)C(=O)N[C@@H](CCCNC(=N)N)C(=O)N[C@@H](CCCCN)C(=O)N[C@@H]([C@@H](C)O)C(=O)N2)NC(=O)[C@H](CCCNC(=N)N)NC(=O)[C@H](CO)NC(=O)[C@H](CCCCN)NC(=O)[C@@H]2CCCN2C(=O)[C@H]([C@@H](C)CC)NC(=O)[C@H]([C@@H](C)O)NC(=O)[C@H](CC(=O)O)NC1=O |  | 9.60 | 8.25 | 9.89
3 | CCCC[C@@H]1NC(=O)[C@H](CO)NC(=O)[C@H](Cc2c[nH]cn2)NC(=O)[C@H](CCCCN)NC(=O)[C@@H]2CSSC[C@@H]3NC(=O)[C@H]([C@@H](C)O)NC(=O)[C@H](CCCCN)NC(=O)[C@H](CCCNC(=N)N)NC(=O)[C@H](CSSC[C@H](NC(=O)[C@H](CCCNC(=N)N)NC(=O)[C@H](CO)NC(=O)[C@H](CCCCN)NC(=O)[C@@H]4CCCN4C(=O)[C@H]([C@@H](C)CC)NC(=O)[C@H]([C@@H](C)O)NC(=O)[C@H](CC(=O)O)NC(=O)[C@H]([C@@H](C)CC)NC(=O)[C@@H](NC(=O)[C@H](CO)NC(=O)[C@@H](N)CCCNC(=N)N)CSSC[C@@H](C(=O)N[C@@H](C)C(=O)O)NC(=O)[C@H]([C@@H](C)O)NC(=O)CNC3=O)C(=O)N[C@@H]([C@@H](C)O)C(=O)N[C@@H](C)C(=O)N[C@@H](Cc3ccccc3)C(=O)N[C@@H](CCCCN)C(=O)N2)NC(=O)[C@H](Cc2ccccc2)NC(=O)[C@H](CO)NC(=O)[C@H](CC(C)C)NC(=O)[C@H](CCCNC(=N)N)NC(=O)[C@H](Cc2ccc(O)cc2)NC(=O)[C@H](CCCCN)NC1=O | 10.15 | 9.52 | 9.29 | 
4 | CC[C@H](C)[C@@H]1NC(=O)[C@@H](NC(=O)[C@H](CO)NC(=O)[C@@H](N)CCCNC(=N)N)CSSC[C@@H](C(=O)O)NC(=O)[C@H]([C@@H](C)O)NC(=O)CNC(=O)[C@@H]2CSSC[C@@H]3NC(=O)[C@H](CCC(N)=O)NC(=O)[C@H](CCC(=O)O)NC(=O)[C@H](C)NC(=O)[C@H]([C@@H](C)O)NC(=O)[C@H](CSSC[C@H](NC(=O)[C@H](Cc4ccccc4)NC(=O)[C@H](CO)NC(=O)[C@H](CC(C)C)NC(=O)[C@H](CCCNC(=N)N)NC(=O)[C@H](Cc4ccc(O)cc4)NC(=O)[C@H](CCCCN)NC(=O)[C@H](CCSC)NC(=O)[C@H](CO)NC(=O)[C@H](C)NC(=O)[C@H](CCCCN)NC3=O)C(=O)N[C@@H](CCCNC(=N)N)C(=O)N[C@@H](CCCCN)C(=O)N[C@@H]([C@@H](C)O)C(=O)N2)NC(=O)[C@H](CCCNC(=N)N)NC(=O)[C@H](CO)NC(=O)[C@H](CCCCN)NC(=O)[C@@H]2CCCN2C(=O)[C@H]([C@@H](C)CC)NC(=O)[C@H]([C@@H](C)O)NC(=O)[C@H](CC(=O)O)NC1=O (H-RSCIDTIPKSRCTAEQCKASMKYRLSFCRKTCGTC-OH; disulfide 3-35, 12-28, 17-32) | 9.57 | 9.51 | 9.24 | 
5 | CC[C@H](C)[C@@H]1NC(=O)[C@@H](NC(=O)[C@H](CO)NC(=O)[C@@H](N)CCCNC(=N)N)CSSC[C@@H](C(=O)O)NC(=O)[C@H]([C@@H](C)O)NC(=O)CNC(=O)[C@@H]2CSSC[C@@H]3NC(=O)[C@H](CCC(N)=O)NC(=O)[C@H](CCCCN)NC(=O)[C@H](C)NC(=O)[C@H]([C@@H](C)O)NC(=O)[C@H](CSSC[C@H](NC(=O)[C@H](Cc4ccccc4)NC(=O)[C@H](CO)NC(=O)[C@H](CC(C)C)NC(=O)[C@H](CCCNC(=N)N)NC(=O)[C@H](Cc4ccc(O)cc4)NC(=O)[C@H](CCCCN)NC(=O)[C@H](CCSC)NC(=O)[C@H](CO)NC(=O)[C@H](C)NC(=O)[C@H](CCCCN)NC3=O)C(=O)N[C@@H](CCCNC(=N)N)C(=O)N[C@@H](CCCCN)C(=O)N[C@@H]([C@@H](C)O)C(=O)N2)NC(=O)[C@H](CCCNC(=N)N)NC(=O)[C@H](CO)NC(=O)[C@H](CCCCN)NC(=O)[C@@H]2CCCN2C(=O)[C@H]([C@@H](C)CC)NC(=O)[C@H]([C@@H](C)O)NC(=O)[C@H](CC(=O)O)NC1=O (H-RSCIDTIPKSRCTAKQCKASMKYRLSFCRKTCGTC-OH; disulfide 3-35, 12-28, 17-32) | 9.53 | 9.33 | 9.00 | 
6 | CC[C@H](C)[C@@H]1NC(=O)[C@@H](NC(=O)[C@H](CO)NC(=O)[C@@H](N)CCCNC(=N)N)CSSC[C@@H](C(=O)O)NC(=O)[C@H]([C@@H](C)O)NC(=O)CNC(=O)[C@@H]2CSSC[C@@H]3NC(=O)[C@H](CCC(N)=O)NC(=O)[C@H](Cc4cccc5ccccc45)NC(=O)[C@H](C)NC(=O)[C@H]([C@@H](C)O)NC(=O)[C@H](CSSC[C@H](NC(=O)[C@H](Cc4ccccc4)NC(=O)[C@H](CO)NC(=O)[C@H](CC(C)C)NC(=O)[C@H](CCCNC(=N)N)NC(=O)[C@H](Cc4ccc(O)cc4)NC(=O)[C@H](CCCCN)NC(=O)[C@H](CCSC)NC(=O)[C@H](CO)NC(=O)[C@H](C)NC(=O)[C@H](CCCCN)NC3=O)C(=O)N[C@@H](CCCNC(=N)N)C(=O)N[C@@H](CCCCN)C(=O)N[C@@H]([C@@H](C)O)C(=O)N2)NC(=O)[C@H](CCCNC(=N)N)NC(=O)[C@H](CO)NC(=O)[C@H](CCCCN)NC(=O)[C@@H]2CCCN2C(=O)[C@H]([C@@H](C)CC)NC(=O)[C@H]([C@@H](C)O)NC(=O)[C@H](CC(=O)O)NC1=O (H-RSCIDTIPKSRCTA[1Nal]QCKASMKYRLSFCRKTCGTC-OH; disulfide 3-35, 12-28, 17-32) | 10.14 | 9.74 | 9.54 | 
7 | CC[C@H](C)[C@@H]1NC(=O)[C@@H](NC(=O)[C@H](CO)NC(=O)[C@@H](N)CCCNC(=N)N)CSSC[C@@H](C(=O)O)NC(=O)[C@H]([C@@H](C)O)NC(=O)CNC(=O)[C@@H]2CSSC[C@@H]3NC(=O)[C@H](CCC(N)=O)NC(=O)[C@H](Cc4ccccc4)NC(=O)[C@H](CCC(=O)O)NC(=O)[C@H]([C@@H](C)O)NC(=O)[C@H](CSSC[C@H](NC(=O)[C@H](Cc4ccccc4)NC(=O)[C@H](CO)NC(=O)[C@H](CC(C)C)NC(=O)[C@H](CCCNC(=N)N)NC(=O)[C@H](Cc4ccc(O)cc4)NC(=O)[C@H](CCCCN)NC(=O)[C@H](CCSC)NC(=O)[C@H](CO)NC(=O)[C@H](Cc4cnc[nH]4)NC(=O)[C@H](CCCCN)NC3=O)C(=O)N[C@@H](CCCNC(=N)N)C(=O)N[C@@H](CCCCN)C(=O)N[C@@H]([C@@H](C)O)C(=O)N2)NC(=O)[C@H](CCCNC(=N)N)NC(=O)[C@H](CO)NC(=O)[C@H](CCCCN)NC(=O)[C@@H]2CCCN2C(=O)[C@H]([C@@H](C)CC)NC(=O)[C@H]([C@@H](C)O)NC(=O)[C@H](Cc2cccc3ccccc23)NC1=O (H-RSCI[1Nal]TIPKSRCTEFQCKHSMKYRLSFCRKTCGTC-OH; disulfide 3-35, 12-28, 17-32) | 9.96 | 10.44 | 9.88 | 
8 | CC[C@H](C)[C@@H]1NC(=O)[C@@H](NC(=O)[C@H](CO)NC(=O)[C@@H](N)CCCNC(=N)N)CSSC[C@@H](C(=O)O)NC(=O)[C@H]([C@@H](C)O)NC(=O)CNC(=O)[C@@H]2CSSC[C@@H]3NC(=O)[C@H](CCC(N)=O)NC(=O)[C@H](Cc4ccccc4)NC(=O)[C@H](CCCCN)NC(=O)[C@H]([C@@H](C)O)NC(=O)[C@H](CSSC[C@H](NC(=O)[C@H](Cc4ccccc4)NC(=O)[C@H](CO)NC(=O)[C@H](CC(C)C)NC(=O)[C@H](CCCNC(=N)N)NC(=O)[C@H](Cc4ccc(O)cc4)NC(=O)[C@H](CCCCN)NC(=O)[C@H](CCSC)NC(=O)[C@H](CO)NC(=O)[C@H](Cc4cnc[nH]4)NC(=O)[C@H](CCCCN)NC3=O)C(=O)N[C@@H](CCCNC(=N)N)C(=O)N[C@@H](CCCCN)C(=O)N[C@@H]([C@@H](C)O)C(=O)N2)NC(=O)[C@H](CCCNC(=N)N)NC(=O)[C@H](CO)NC(=O)[C@H](CCCCN)NC(=O)[C@@H]2CCCN2C(=O)[C@H]([C@@H](C)CC)NC(=O)[C@H]([C@@H](C)O)NC(=O)[C@H](Cc2cccc3ccccc23)NC1=O (H-RSCI[1Nal]TIPKSRCTKFQCKHSMKYRLSFCRKTCGTC-OH; disulfide 3-35, 12-28, 17-32) | 10.14 | 10.12 | 9.70 | 
